These results are taken from patent US11925629B2, “Heterocyclic inhibitors of ERK1 and ERK2 and their use in the treatment of cancer” (Asana Biosciences, LLC, priority 2015, dated 2024).

For test [1], the system named is HCT116 (colorectal carcinoma, K Ras G13D) cells. Kind of test: Cell proliferation (Alamar Blue) assay, HCT116. Type of test: cell-based, human. How it is done:
(§1) Cell Proliferation (Alamar Blue) Assay
(§2) HT-29 (colorectal carcinoma, B-RafV600E), HCT116 (colorectal carcinoma, K Ras G13D), A375 (melanoma, B-RafV600E) and SK-Mel2 (melanoma, NRAS Q61R) cells (obtained from ATCC, USA) were seeded (5000 cells/well) in 96-well tissue culture plate and incubated at 37° C./5% CO2 for 16-24 hours. The cells were then treated with compounds, at concentrations typically from 0.0005 to 10 uM prepared in 3-fold serial dilutions. The plates were then incubated for 72 h at 37° C./5% CO2 in a moist environment. Then Alamar Blue™ reagent (final concentration 1×) was added to each well and incubated for 1-3 h at 37° C./5% CO2. The plates were read on fluorescence reader at 540 nm excitation and 590 nm emission wavelengths. The IC50 values were subsequently determined using a sigmoidal dose-response curve (variable slope) using GraphPad Prism® 5 software.

Test [2] concerns HT-29 (colorectal carcinoma, B-RafV600E) cells. Put plainly: Cell proliferation (Alamar Blue) assay, HT-29. In kind it is cell-based, human. The protocol:
as §1, §2
(In general: Resazurin is reduced to fluorescent resorufin, in cell work by metabolically active cells.)

The mark [3] stands for this setting: Homo sapiens, HT-29, HT29 cells.
[4] abbreviates: Homo sapiens, HCT-116, HCT116 cells.

Molecules are shown by their SMILES.

Take `Cc1cnc(NC2CCOCC2)nc1-n1cnc(C(=O)NC(CN)c2ccc(Cl)s2)c1` (stereo not shown) [Example 274, N-(2-amino-1-(5-chlorothiophen-2-yl)ethyl)-1-(5-methyl-2-((tetrahydro-2H-pyran-4-yl)amino)pyrimidin-4-yl)-1H-imidazole-4-carboxamide]: in test [1] (HCT116 cells), the half-inhibitory concentration (IC50) – broadly, the concentration at which inhibition is half-maximal – is ≤ 100 nM.

In the case of `Cc1cnc(Nc2ccc(F)cc2)cc1-n1cnc(C(=O)NC(CN)c2ccc(F)cc2)c1` (stereo not shown) [Example 230, N-(2-amino-1-(4-fluorophenyl)ethyl)-1-(2-((4-fluorophenyl)amino)-5-methylpyridin-4-yl)-1H-imidazole-4-carboxamide], the IC50 in test [2] (setting [3]) is 500 to 2500 nM; in test [1] (setting [4]) it was > 2500 nM.

Regarding `NCC(NC(=O)c1cn(-c2ccnc(Nc3ccc(F)cc3)c2)cn1)c1ccccc1` (stereo not shown) [Example 221, N-(2-amino-1-phenylethyl)-1-(2-((4-fluorophenyl)amino)pyridin-4-yl)-1H-imidazole-4-carboxamide], the IC50 lay within 250 to 500 nM in test [2] (setting [3]) and 500 to 2500 nM in test [1] (setting [4]).

With `O=C(N[C@H](CO)c1cccc(Cl)c1)c1ccn(-c2nc(NC3CCOCC3)ncc2F)c1` [Example 229, (S)-N-(1-(3-chlorophenyl)-2-hydroxyethyl)-1-(5-fluoro-2-((tetrahydro-2H-pyran-4-yl)amino)pyrimidin-4-yl)-1H-pyrrole-3-carboxamide], the half-inhibitory concentration (IC50) in test [2] (setting [3]) is ≤ 100 nM; in test [1] (setting [4]), 500 to 2500 nM.

`O=C(Nc1cnn(-c2ccnc(Nc3ccccc3)c2)c1)N[C@@H](CO)c1cccc(Cl)c1` [Example 49, (R)-1-(1-(3-chloro-phenyl)-2-hydroxy-ethyl)-3-(1-(2-(phenylamino)pyridin-4-yl)-1H-pyrazol-4-yl)urea]: the IC50 in test [2] (setting [3]) and in test [1] (setting [4]) was > 2500 nM in each case.

On to `O=C(NC(CO)c1ccccc1)c1ccn(-c2ccnc(Nc3ccc(F)cc3)c2)c1` (stereo not shown) [Example 84, 1-(2-((4-fluoro-phenyl)amino)pyridin-4-yl)-N-(2-hydroxy-1-phenyl-ethyl)-1H-pyrrole-3-carboxamide], for which the IC50 in test [2] (setting [3]) and in test [1] (setting [4]) was > 2500 nM throughout.

`Cc1cnc(Nc2ccc3c(c2)OCO3)cc1-n1cnc(C(=O)NC(CO)c2cccc(Cl)c2)c1` (stereo not shown) [Example 88, 1-(2-(benzo[d][1,3]dioxol-5-ylamino)-5-methyl-pyridin-4-yl)-N-(1-(3-chloro-phenyl)-2-hydroxy-ethyl)-1H-imidazole-4-carboxamide]: the half-inhibitory concentration (IC50) in test [2] (setting [3]) and in test [1] (setting [4]) was > 2500 nM in each case.

On to `O=C(Nc1cnn(-c2ccnc(Nc3ccc(F)cc3Cl)n2)c1)N[C@H](CO)c1cccc(Cl)c1` [Cmpd 20, (S)-1-(1-(2-((2-chloro-4-fluoro-phenyl)amino)pyrimidin-4-yl)-1H-pyrazol-4-yl)-3-(1-(3-chloro-phenyl)-2-hydroxyethyl) urea], for which, in test [1] (setting [4]), the half-inhibitory concentration (IC50) is > 2500 nM.

Consider `O=C(Nc1cnn(-c2ccnc(Nc3cccnc3)n2)c1)N[C@H](CO)c1cccc(Cl)c1` [Example 24, (S)-1-(1-(3-chlorophenyl)-2-hydroxy-ethyl)-3-(1-(2-(pyridin-3-yl-amino)pyrimidin-4-yl)-1H-pyrazol-4-yl)urea], for which the half-maximal inhibitory concentration (IC50) in test [2] (setting [3]) and in test [1] (setting [4]) was > 2500 nM throughout.

For `O=C(NC(CO)c1cccc(Cl)c1)c1ccn(-c2ccnc(Nc3ccc(F)cc3Cl)n2)c1` (stereo not shown) [Example 111, 1-(2-((2-chloro-4-fluorophenyl)amino)pyrimidin-4-yl)-N-(1-(3-chlorophenyl)-2-hydroxy-ethyl)-1H-pyrrole-3-carboxamide], the half-maximal inhibitory concentration (IC50) in test [2] (setting [3]) and in test [1] (setting [4]) was > 2500 nM in each case.

For `Cc1cnc(NC2CCOCC2)nc1-n1ccc(C(=O)NC(CO)c2ccccc2)c1` (stereo not shown) [Example 120, N-(2-hydroxy-1-phenylethyl)-1-(5-methyl-2-((tetrahydro-2H-pyran-4-yl)amino)pyrimidin-4-yl)-1H-pyrrole-3-carboxamide], the 50% inhibitory concentration (IC50) in test [2] (setting [3]) and in test [1] (setting [4]) was > 2500 nM throughout.

For the molecule `O=C(Nc1cnn(-c2ccnc(NC3CC3)n2)c1)NC(CO)c1cccc(Cl)c1` (stereo not shown) [Example 16, 1-(1-(3-chlorophenyl)-2-hydroxy-ethyl)-3-(1-(2-(cyclo-propylamino)pyrimidin-4-yl)-1H-pyrazol-4-yl)urea], in test [1] (setting [4]), the concentration for half-maximal inhibition (IC50) is > 2500 nM.

For `Cc1cnc(NC2CCN(C)C2)nc1-n1ccc(C(=O)N[C@H](CO)c2cccc(Cl)c2)c1` (stereo partly drawn) [Example 208, N-((S)-1-(3-chlorophenyl)-2-hydroxyethyl)-1-(5-methyl-2-((1-methylpyrrolidin-3-yl)amino)pyrimidin-4-yl)-1H-pyrrole-3-carboxamide], the values for the IC50 in test [2] (setting [3]) and in test [1] (setting [4]) were 500 to 2500 nM and > 2500 nM, respectively.

With `O=C(Nc1cnn(-c2nc(NC3CC3)ncc2F)c1)N[C@H](CO)c1cccc(Cl)c1` [Example 30, (S)-1-(1-(3-chlorophenyl)-2-hydroxy-ethyl)-3-(1-(2-(cyclo-propyl-amino)-5-fluoro-pyrimidin-4-yl)-1H-pyrazol-4-yl)urea], the half-maximal inhibitory concentration (IC50) in test [2] (setting [3]) and in test [1] (setting [4]) was > 2500 nM throughout.

Consider `Cc1cnc(Nc2ccc(F)cc2Cl)nc1-n1ccc(C(=O)N[C@@H](CN(C)C)c2ccccc2)c1` [Example 97, (R)-1-(2-((2-chloro-4-fluorophenyl)amino)-5-methyl-pyrimidin-4-yl)-N-(2-(dimethyl-amino)-1-phenylethyl)-1H-pyrrole-3-carboxamide], for which the half-maximal inhibitory concentration (IC50) in test [2] (setting [3]) and in test [1] (setting [4]) was > 2500 nM in each case.

Regarding `Cc1cnc(NC2CC2)nc1-n1cc(C(=O)N[C@H](CO)c2cccc(Cl)c2)cn1` [Cmpd 39, (S)-N-(1-(3-chlorophenyl)-2-hydroxy-ethyl)-1-(2-(cyclopropyl-amino)-5-methyl-pyrimidin-4-yl)-1H-pyrazole-4-carboxamide], the 50% inhibitory concentration (IC50) in test [2] (setting [3]) and in test [1] (setting [4]) was > 2500 nM throughout.

On to `Cc1cnc(Nc2ccc3c(c2)OC(F)(F)O3)cc1-n1ccc(C(=O)NC(CO)c2cccc(Cl)c2)c1` (stereo not shown) [Example 92, N-(1-(3-chlorophenyl)-2-hydroxy-ethyl)-1-(2-((2,2-difluoro-benzo[d][1,3]dioxol-5-yl)amino)-5-methyl-pyridin-4-yl)-1H-pyrrole-3-carboxamide], for which the IC50 is 500 to 2500 nM in test [2] (setting [3]) and > 2500 nM in test [1] (setting [4]).

On to `Cc1cnc(NC2CCOCC2)nc1-n1cnc(C(=O)NC(CN)c2ccc(Cl)s2)c1` (single isomer, unassigned; enantiomer #1) [Example 290, N-(2-amino-1-(5-chlorothiophen-2-yl)ethyl)-1-(5-methyl-2-((tetrahydro-2H-pyran-4-yl)amino)pyrimidin-4-yl)-1H-imidazole-4-carboxamide (enantiomer #1)], for which, in test [1] (HCT116 cells), the IC50 was ≤ 100 nM.

Take `O=C(Nc1cnn(-c2ccnc(N[C@H]3CC[C@H](O)CC3)n2)c1)N[C@H](CO)c1cccc(Cl)c1` [Example 14, 1-((S)-1-(3-chlorophenyl)-2-hydroxy-ethyl)-3-(1-(2-((trans-4-hydroxycyclo-hexyl)amino)pyrimidin-4-yl)-1H-pyrazol-4-yl)urea]: the IC50 in test [1] (setting [4]) is > 2500 nM.

For the molecule `Cc1cnc(Nc2ccc(F)cc2Cl)nc1-n1cc(C(=O)N[C@H](CO)c2cccc(Cl)c2)cn1` [Example 35, (S)-1-(2-((2-chloro-4-fluoro-phenyl)amino)-5-methyl-pyrimidin-4-yl)-N-(1-(3-chloro-phenyl)-2-hydroxy-ethyl)-1H-pyrazole-4-carboxamide], in test [1] (setting [4]), the half-inhibitory concentration (IC50) was > 2500 nM.

On to `Cc1cnc(Nc2ccc(F)cc2)cc1-n1cnc(C(=O)NC(CN)c2ccccc2)c1` (single isomer, unassigned; enantiomer #1) [Example 227, N-(2-amino-1-phenylethyl)-1-(2-((4-fluorophenyl)amino)-5-methylpyridin-4-yl)-1H-imidazole-4-carboxamide, Enantiomer #1], for which the half-maximal inhibitory concentration (IC50) in test [2] (HT29 cells) fell in the range of 100 to 250 nM.

For the molecule `O=C(Nc1cnn(-c2ccnc(Nc3ccccc3)c2)c1)NC(CO)c1cccc(Cl)c1` (stereo not shown) [Example 33, 1-(1-(3-chlorophenyl)-2-hydroxy-ethyl)-3-(1-(2-(phenyl-amino)-pyridin-4-yl)-1H-pyrazol-4-yl)urea], in test [1] (setting [4]), the half-maximal inhibitory concentration (IC50) is > 2500 nM.

As to `Cc1cnc(Nc2ccc(F)cc2Cl)nc1-n1cc(NC(=O)NC(CO)c2cccc(Cl)c2)cn1` (stereo not shown) [Example 36, 1-(1-(2-((2-chloro-4-fluorophenyl)-amino)-5-methyl-pyrimidin-4-yl)-1H-pyrazol-4-yl)-3-(1-(3-chlorophenyl)-2-hydroxy-ethyl)urea], the IC50 in test [1] (setting [4]) is > 2500 nM.

For the molecule `COc1cc(N2CCN(C(C)=O)CC2)ccc1Nc1nccc(-n2cc(NC(=O)N[C@H](CO)c3cccc(Cl)c3)cn2)n1` [Example 15, (S)-1-(1-(2-((4-(4-acetyl-piperazin-1-yl)-2-methoxy-phenyl)amino)pyrimidin-4-yl)-1H-pyrazol-4-yl)-3-(1-(3-chloro-phenyl)-2-hydroxyethyl) urea], the IC50 in test [1] (setting [4]) is > 2500 nM.

Consider `O=C(N[C@H](CO)c1cccc(Cl)c1)c1ccn(-c2ccnc(Nc3ccc(F)cc3Cl)n2)c1` [Example 112, (S)-1-(2-((2-chloro-4-fluorophenyl)-amino)pyrimidin-4-yl)-N-(1-(3-chlorophenyl)-2-hydroxy-ethyl)-1H-pyrrole-3-carboxamide], for which the half-inhibitory concentration (IC50) in test [1] (setting [4]) was > 2500 nM.

With `O=C(Nc1cnn(-c2ccnc(Nc3ccccc3Cl)n2)c1)N[C@H](CO)c1cccc(Cl)c1` [Example 1, (S)-1-(1-(3-chlorophenyl)-2-hydroxyethyl)-3-(1-(2-((2-chloro-phenyl)amino)pyrimidin-4-yl)-1H-pyrazol-4-yl) urea], the IC50 in test [1] (setting [4]) was > 2500 nM.
